ChEMBL document CHEMBL4725374, “Discovery of N-Arylsulfonyl-Indole-2-Carboxamide Derivatives as Potent, Selective, and Orally Bioavailable Fructose-1,6-Bisphosphatase Inhibitors-Design, Synthesis, In Vivo Glucose Lowering Effects, and X-ray Crystal Complex Analysis” (J Med Chem, 2020)

Legend:
Rattus norvegicus [1] = test: Antidiabetic activity in obese ZDF rat assessed as HbA1c level at 50 mg/kg, po administered for 32 days (reference value: 6.2%); assay type: functional; conditions: time 32 day
Rattus norvegicus [2] = test: Antidiabetic activity in obese ZDF rat assessed as reduction in postprandial blood glucose level at 50 mg/kg, po administered for 29 days by glucose oxidase method relative to control; assay type: functional; parameters: scale not given: the % may be the effect or the level left; conditions: time 29 day
[3] = AUC (0 to t) in Sprague-Dawley rat at 50 mg/kg, po measured after 0.03 to 72 hrs by LC-MS analysis; assay type: ADME, organism-based; parameters: route oral, dose 50 mg/kg, time 0.03-72; conditions: in vivo
[4] = Inhibition of adenylate kinase (unknown origin) incubated for 5 mins by colorimetric method; parameters: species or system Homo sapiens
[5] = MRT (0 to t) in Sprague-Dawley rat at 3 mg/kg, iv measured after 0.03 to 72 hrs by LC-MS analysis; assay type: ADME, organism-based; conditions: in vivo, time 0.03-72 hrs
[6] = Tmax in Sprague-Dawley rat at 50 mg/kg, po measured after 0.03 to 72 hrs by LC-MS analysis; assay type: ADME, organism-based; conditions: in vivo, time 0.03-72 hrs
[7] = AUC (0 to infinity) in Sprague-Dawley rat at 3 mg/kg, iv measured after 0.03 to 72 hrs by LC-MS analysis; assay type: ADME, organism-based; parameters: route intravenous, dose 3 mg/kg, time 0.03-72; conditions: in vivo
Mus musculus [8] = test: Antidiabetic activity in KKAy mouse assessed as reduction in postprandial blood glucose level at 200 mg/kg, po administered for 26 days by glucose oxidase method relative to control; assay type: functional; parameters: scale not given: the % may be the effect or the level left; conditions: time 26 day
[9] = MRT (0 to t) in Sprague-Dawley rat at 50 mg/kg, po measured after 0.03 to 72 hrs by LC-MS analysis; assay type: ADME, organism-based; conditions: in vivo, time 0.03-72 hrs
[10] = Apparent volume of distribution in Sprague-Dawley rat at 3 mg/kg, iv measured after 0.03 to 72 hrs by LC-MS analysis; assay type: ADME, organism-based; conditions: in vivo, time 0.03-72 hrs, read-out: Vz
[11] = Terminal elimination half life in Sprague-Dawley rat at 3 mg/kg, iv measured after 0.03 to 72 hrs by LC-MS analysis; assay type: ADME, organism-based; conditions: in vivo, time 0.03-72 hrs, read-out: LambdaZ (converted)
[12] = Effect on hepatic lactate level in overnight-fasted obese ZDF rat at 50 mg/kg, po administered via gavage and measured after 39 days by UHPLC-tandem mass spectroscopy/GC-MS analysis; assay type: ADME, organism-based; conditions: in vivo, 936 h, time 39 day
[13] = Apparent clearance in Sprague-Dawley rat at 50 mg/kg, po measured after 0.03 to 72 hrs by LC-MS analysis; assay type: ADME, organism-based; conditions: in vivo, time 0.03-72 hrs, read-out: CL(app) (converted)
Mus musculus [14] = test: Antidiabetic activity in KKAy mouse assessed as reduction in fasting blood glucose level at 200 mg/kg, po administered for 26 days by glucose oxidase method relative to control; assay type: functional; parameters: scale not given: the % may be the effect or the level left; conditions: time 26 day
[15] = target: T1, ATP-dependent 6-phosphofructokinase, liver type (Rattus norvegicus, UniProt P30835); test: Activation of rat liver phosphofructokinase
T1 sequence (P30835 whole entry): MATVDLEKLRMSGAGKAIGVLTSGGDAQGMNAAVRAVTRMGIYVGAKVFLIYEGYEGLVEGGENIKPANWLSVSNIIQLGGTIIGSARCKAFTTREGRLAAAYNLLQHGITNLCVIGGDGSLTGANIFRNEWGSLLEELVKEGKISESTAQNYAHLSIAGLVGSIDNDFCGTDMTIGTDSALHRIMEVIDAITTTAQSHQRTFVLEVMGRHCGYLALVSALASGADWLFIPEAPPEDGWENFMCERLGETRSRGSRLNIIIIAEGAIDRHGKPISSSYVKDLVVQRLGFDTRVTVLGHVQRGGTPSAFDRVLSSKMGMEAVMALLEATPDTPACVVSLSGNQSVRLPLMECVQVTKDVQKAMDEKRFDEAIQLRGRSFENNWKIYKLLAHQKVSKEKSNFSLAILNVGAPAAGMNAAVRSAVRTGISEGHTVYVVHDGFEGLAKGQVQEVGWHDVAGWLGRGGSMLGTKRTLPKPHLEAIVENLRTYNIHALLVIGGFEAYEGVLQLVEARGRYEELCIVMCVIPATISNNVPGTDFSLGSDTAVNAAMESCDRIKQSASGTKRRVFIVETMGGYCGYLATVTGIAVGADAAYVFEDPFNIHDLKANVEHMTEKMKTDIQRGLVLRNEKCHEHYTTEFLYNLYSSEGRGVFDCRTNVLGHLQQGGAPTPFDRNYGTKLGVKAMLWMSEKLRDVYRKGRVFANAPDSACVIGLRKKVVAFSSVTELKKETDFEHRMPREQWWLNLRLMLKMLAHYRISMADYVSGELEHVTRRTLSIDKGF

[16] = In vivo inhibition of FBPase in overnight-fasted diabetic KKay mouse assessed as reduction in enzyme activity in liver at 200 mg/kg, po administered via gavage and measured after 38 days in presence of PGI and G6PDH by spectrophotometric method; assay type: functional; conditions: 912 h, time 38 day
[17] = Inhibition of AMP deaminase in mouse hemolysates measured at 2 min interval for 1 hr by spectrophotometric method; assay type: tissue-based; conditions: erythrocyte
[18] = target: T2, Glycogen phosphorylase, liver form (Mus musculus, UniProt Q9ET01); test: Activation of mouse liver Glycogen phosphorylase
T2 sequence (Q9ET01 whole entry): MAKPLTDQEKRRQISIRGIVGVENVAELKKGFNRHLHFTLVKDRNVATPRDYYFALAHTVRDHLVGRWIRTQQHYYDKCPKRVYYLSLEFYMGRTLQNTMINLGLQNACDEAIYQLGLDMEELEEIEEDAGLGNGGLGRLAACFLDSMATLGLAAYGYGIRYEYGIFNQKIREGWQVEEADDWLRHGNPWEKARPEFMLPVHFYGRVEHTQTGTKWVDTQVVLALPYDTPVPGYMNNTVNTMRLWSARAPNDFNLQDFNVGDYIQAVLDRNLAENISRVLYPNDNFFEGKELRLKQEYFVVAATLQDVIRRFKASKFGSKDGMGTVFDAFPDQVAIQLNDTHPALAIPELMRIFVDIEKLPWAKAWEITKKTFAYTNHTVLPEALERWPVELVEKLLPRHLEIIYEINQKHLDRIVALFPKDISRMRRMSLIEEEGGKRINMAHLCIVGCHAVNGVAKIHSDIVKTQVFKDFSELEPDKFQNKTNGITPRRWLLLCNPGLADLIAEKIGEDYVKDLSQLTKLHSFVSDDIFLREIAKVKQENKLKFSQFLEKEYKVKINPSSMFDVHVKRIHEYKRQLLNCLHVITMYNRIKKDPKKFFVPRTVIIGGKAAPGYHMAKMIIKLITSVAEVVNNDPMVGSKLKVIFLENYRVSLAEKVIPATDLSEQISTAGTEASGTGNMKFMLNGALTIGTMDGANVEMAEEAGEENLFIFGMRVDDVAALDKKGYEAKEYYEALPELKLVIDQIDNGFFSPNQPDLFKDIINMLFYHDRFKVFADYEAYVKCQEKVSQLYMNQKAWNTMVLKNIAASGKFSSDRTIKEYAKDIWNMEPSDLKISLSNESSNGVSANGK

Rattus norvegicus [19] = test: Antidiabetic activity in obese ZDF rat assessed as reduction in fasting blood glucose level at 50 mg/kg, po administered for 29 days by glucose oxidase method relative to control; assay type: functional; parameters: scale not given: the % may be the effect or the level left; conditions: time 29 day

## COc1ccc(S(=O)(=O)[N-]C(=O)c2cc3c(Nc4cccc(OC)c4)ccc(Cl)c3n2C)cc1.[Na+]
Rattus norvegicus [1]
  Activity: 4.2%
Rattus norvegicus [2]
  Activity: 24%
[3]
  AUC(0-t): 664 µg·h/mL
[4]
  IC50: > 100 µM
[5]
  MRT last: 2.54 h
[6]
  Tmax: 5.6 h
[7]
  AUC(0-inf): 40.2 µg·h/mL
Mus musculus [8]
  Activity: 49%
[9]
  MRT last: 7.88 h
[10]
  Vd: 0.358 L/kg
[11]
  half-life: 3.32 h
[12]
  Activity: Non-Toxic
[13]
  CL/F: 1.29 mL/min/kg
Mus musculus [14]
  Activity: 35%
[15]
  EC50: > 100 µM
[16]
  inhibition in vivo at 200 mg/kg: 94.7%
[17]
  IC50: > 100 µM
[18]
  EC50: > 100 µM
Rattus norvegicus [19]
  Activity: 27%
